Measurements as given in patent US9956293B2, “Targeted therapeutics” (Madrigal Pharmaceuticals, Inc., priority 2014, dated 2018).

How the values were obtained:
[1] = Artificial membrane permeability assay (PAMPA) (Example 36); type: in vitro ADME; settings: incubation 5 h, the 55th table
Description: In order to test the ability SDC-TRAP molecules of the invention to enter cells, an artificial membrane permeability assay (“PAMPA”) was used. […] LC/MS was used in conjunction with PAMPA assays to determine the ability of the SDC-TRAP molecules of the invention to permeate cells.
Pre-coated PAMPA plates were warmed to room temperature for at least 30 minutes prior to adding assay components.
Stock solutions were prepared with the SDC-TRAP molecules to be tested. In order to make a working solution, either 50 μL of 100 μM Stock in DMSO+950 μL of PBS or 50 μL of 200 μM stock was added to 96 deep well plate, resulting in a 5 μM final concentration or a 10 μM final concentration, respectively. 300 μL of the working solution containing each compound to be tested was added to the appropriate well of a donor PAMPA plate. 200 μL of PBS was added into the corresponding wells of an acceptor PAMPA plates.
The acceptor plate was lowered onto the donor plate and allowed to incubate for five hours. After five hours, a 50 μL aliquot was removed from each well of each plate and added into a new 96 deep-well plate.
100 μL of methanol containing an internal standard was added to each aliquot and analyzed by LC/MS. The internal standard was 150 ng/ml SDC-TRAP-0002.
In order to calculate the permeability for each SDC-TRAP molecule and the control molecules, the following formula was used:

HER2 [2] = test: HER2 degradation in BT-474 cells (Example 3, Western blot / in-cell imaging); type: cell-based, human; settings: Homo sapiens; BT-474 cells; read-out: HER2 (IC50)
Description: BT-474 cells are plated in the interior 60 wells of a 96 well black clear bottom plate (20,000 cells/well) in DMEM medium, with DMEM media in the surrounding 36 wells, and incubated at 37° C. with 5% CO2 overnight. On the second day, concentration response curve source plates are produced (10 point, 3-fold dilution of compounds in DMSO) followed by a 1:30 dilution in an intermediate dilution plate containing DMEM. Compound is transferred from the intermediate plate to the cell plate at a dilution of 1:10.
Cells are then fixed in 4% phosphate-buffered paraformaldehyde for 30 minutes at room temperature and then permeabilized by washing five times with 0.1% Triton X-100 in PBS for 5 minutes at room temperature on a shaker. […] Cells are washed 5 times with 0.1% Tween-20 in PBS for 5 minutes at room temperature on a shaker and imaged on a LI-COR Odyssey imaging station. The raw data is normalized to DRAQ5 and the HER2 EC50 is calculated using XLfit™.

HER2 [3] = test: HER2 degradation assay with BT-474 cell line (Example 12, FACS); type: cell-based; settings: Homo sapiens
[4] = Stability in human plasma (Example 5); type: in vitro ADME
Description: (§1) This example illustrates a method for assessing the stability of SDC-TRAP of the invention in human and mouse plasma.
(§2) SDC-TRAP-0022 and SDC-TRAP-0028 were incubated in human and mouse plasma for 2 h at 37° C. and assayed for integrity at 0.25, 0.5, 1 and 2 h. The values reported below are the remaining of the parent compound at the end of the 2 h incubation period.

[5] = Stability in mouse plasma (Example 5); type: in vitro ADME
Description: as §1, §2

[6] = BT-474, SDC-TRAPs of the 41st table
[7] = BT-474, SDC-TRAPs of the 43rd table

For CC(C)c1cc(-c2nnc(O)n2-c2ccc3c(ccn3CCNC(=O)CCCC[C@@H]3SCC4NC(=O)NC43)c2)c(O)cc1O (stereo in doubt) [SDC-TRAP-0233, N-(2-(5-(3-(2,4-dihydroxy-5-isopropylphenyl)-5-hydroxy-4H-1,2,4-triazol-4-yl)-1H-indol-1-yl)ethyl)-5-((3 aS,4S,6aR)-2-oxohexahydro-1H-thieno[3,4-d]imidazol-4-yl)pentanamide], the Papp at 5 h [1] was 0.021 ×10⁻⁶ cm/s.

In the case of CC(C)c1cc(-c2nnc(O)n2-c2ccc3c(ccn3CCN(C)C(=O)CCCC(=O)Nc3cccc4c3CN(C3CCC(=O)NC3=O)C4=O)c2)c(O)cc1O (stereo not shown) [SDC-TRAP-0018, N1-(2-(5-(3-(2,4-dihydroxy-5-isopropylphenyl)-5-hydroxy-4H-1,2,4-triazol-4-yl)-1H-indol-1-yl)ethyl)-N5-(2-(2,6-dioxopiperidin-3-yl)-1-oxoisoindolin-4-yl)-N1-methylglutaramide], the IC50 (HER2 [2]) is reported as greater than 5 µM and the IC50 (HER2 [3]; BT-474 cells) is reported as 8.21 µM.

CC(C)c1cc(-c2nnc(O)n2-c2ccc3c(ccn3CCN(C)C(=O)c3ccc(CCc4c[nH]c5nc(N)[nH]c(=O)c45)cc3)c2)c(O)cc1O [SDC-TRAP-0019, 4-(2-(2-amino-4-oxo-4,7-dihydro-3H-pyrrolo[2,3-d]pyrimidin-5-yl)ethyl)-N-(2-(5-(3-(2,4-dihydroxy-5-isopropylphenyl)-5-hydroxy-4H-1,2,4-triazol-4-yl)-1H-indol-1-yl)ethyl)-N-methylbenzamide] gave an IC50 (HER2 [2]) of 4.42 µM and an IC50 (HER2 [3]; [6]) of 4.42 µM.

In the case of CC(C)c1cc(-c2nnc(O)n2-c2ccc3c(ccn3CCOCCNC(=O)c3ccc(CCc4c[nH]c5nc(N)[nH]c(=O)c45)cc3)c2)c(O)cc1O [SDC-TRAP-0020, 4-(2-(2-amino-4-oxo-4,7-dihydro-3H-pyrrolo[2,3-d]pyrimidin-5-yl)ethyl)-N-(2-(2-(5-(3-(2,4-dihydroxy-5-isopropylphenyl)-5-hydroxy-4H-1,2,4-triazol-4-yl)-1H-indol-1-yl)ethoxy)ethyl)benzamide], the IC50 (HER2 [2]) is reported as greater than 5 µM and the IC50 (HER2 [3]; [6]) is reported as greater than 5 µM.

CC(C)c1cc(-c2nnc(O)n2-c2ccc3c(ccn3CCN(C)C(=O)NCC(=O)Nc3cccc4c3CN(C3CCC(=O)NC3=O)C4=O)c2)c(O)cc1O (stereo not shown) [SDC-TRAP-0021, 2-(3-(2-(5-(3-(2,4-dihydroxy-5-isopropylphenyl)-5-hydroxy-4H-1,2,4-triazol-4-yl)-1H-indol-1-yl)ethyl)-3-methylureido)-N-(2-(2,6-dioxopiperidin-3-yl)-1-oxoisoindolin-4-yl)acetamide] showed an IC50 (HER2 [2]) greater than 5 µM and an IC50 (HER2 [3]; BT-474 cells) greater than 5 µM.

For CCc1c2c(nc3ccc(OC(=O)N(C)CCn4ccc5cc(-n6c(O)nnc6-c6cc(C(C)C)c(O)cc6O)ccc54)cc13)-c1cc3c(c(=O)n1C2)COC(=O)C3(O)CC (stereo not shown) [SDC-TRAP-0022, 4,11-diethyl-4-hydroxy-3,14-dioxo-3,4,12,14-tetrahydro-1H-pyrano[3′,4′:6,7]indolizino[1,2-b]quinolin-9-yl (2-(5-(3-(2,4-dihydroxy-5-isopropylphenyl)-5-hydroxy-4H-1,2,4-triazol-4-yl)-1H-indol-1-yl)ethyl)(methyl)carbamate], the “% Remaining 2 h (37° C.) HU” value ([4]; human plasma, 1 μM) was 29%, the “% Remaining 2 h (37° C.) HU” value ([4]; human plasma, 10 μM) was 30% and the “% Remaining 2 h (37° C.) MO” value ([5]; mouse plasma, 1 μM) was 32%. The “% Remaining 2 h (37° C.) MO” value ([5]; mouse plasma, 10 μM) was 31%.

In the case of CCc1c2c(nc3ccc(OCC(=O)NCCn4ccc5cc(-n6c(O)nnc6-c6cc(C(C)C)c(O)cc6O)ccc54)cc13)-c1cc3c(c(=O)n1C2)COC(=O)C3(O)CC (stereo not shown) [SDC-TRAP-0023, 2-((4,11-diethyl-4-hydroxy-3,14-dioxo-3,4,12,14-tetrahydro-1H-pyrano[3′,4′:6,7]indolizino[1,2b]quinolin-9-yl)oxy)-N-(2-(5-(3-(2,4-dihydroxy-5-isopropylphenyl)-5-hydroxy-4H-1,2,4-triazol-4-yl)-1H-indol-1-yl)ethyl)acetamide], the IC50 (HER2 [2]) is reported as 4.3 µM and the IC50 (HER2 [3]; [7]) is reported as 4.3 µM.

For CC(C)c1cc(-c2nnc(O)n2-c2ccc3c(ccn3CCOC(=O)Nc3nc(=O)[nH]cc3F)c2)c(O)cc1O [SDC-TRAP-0025, 2-(5-(3-(2,4-dihydroxy-5-isopropylphenyl)-5-hydroxy-4H-1,2,4-triazol-4-yl)-1H-indol-1-yl)ethyl (5-fluoro-2-oxo-1,2-dihydropyrimidin-4-yl) carbamate], the IC50 (HER2 [2]) was 0.395 µM and the IC50 (HER2 [3]; BT-474, SDC-TRAPs of the 52nd table) was 0.403 µM.

In the case of CCc1c2c(nc3ccc(OCC(=O)N(C)CCn4ccc5cc(-n6c(O)nnc6-c6cc(C(C)C)c(O)cc6O)ccc54)cc13)-c1cc3c(c(=O)n1C2)COC(=O)C3(O)CC (stereo not shown) [SDC-TRAP-0027, 2-((4,11-diethyl-4-hydroxy-3,14-dioxo-3,4,12,14-tetrahydro-1H-pyrano[3′,4′:6,7]indolizino[1,2-b]quinolin-9-yl)oxy)-N-(2-(5-(3-(2,4-dihydroxy-5-isopropylphenyl)-5-hydroxy-4H-1,2,4-triazol-4-yl)-1H-indol-1-yl)ethyl)-N-methylacetamide], the IC50 (HER2 [2]) is reported as greater than 5 µM and the IC50 (HER2 [3]; [7]) is reported as greater than 5 µM.

With CCc1c2c(nc3ccc(OCC(=O)N(C)CCOCCn4ccc5cc(-n6c(O)nnc6-c6cc(C(C)C)c(O)cc6O)ccc54)cc13)-c1cc3c(c(=O)n1C2)COC(=O)C3(O)CC (stereo not shown) [SDC-TRAP-0028, 2-((4,11-diethyl-4-hydroxy-3,14-dioxo-3,4,12,14-tetrahydro-1H-pyrano[3′,4′:6,7]indolizino[12-b]quinolin-9-yl)oxy)-N-(2-(2-(5-(3-(2,4-dihydroxy-5-isopropylphenyl)-5-hydroxy-4H-1,2,4-triazol-4-yl)-1H-indol-1-yl)ethoxy)ethyl)-N-methylacetamide] the IC50 (HER2 [2]) was greater than 5 µM, the “% Remaining 2 h (37° C.) HU” value ([4]; human, plasma, 2 h, 1 μM) was 51% and the “% Remaining 2 h (37° C.) HU” value ([4]; human, plasma, 2 h, 10 μM) was 65%. For the same molecule, the IC50 (HER2 [3]; [7]) was greater than 5 µM, the “% Remaining 2 h (37° C.) MO” value ([5]; mouse, plasma, 2 h, 1 μM) was 53% and the “% Remaining 2 h (37° C.) MO” value ([5]; mouse, plasma, 2 h, 10 μM) was 47%.

With CC(C)c1cc(-c2nnc(O)n2-c2ccc3c(ccn3CCOCCN(C)C(=O)CCC(=O)Nc3cccc4c3CN(C3CCC(=O)NC3=O)C4=O)c2)c(O)cc1O (stereo not shown) [SDC-TRAP-0033, N1-(2-(2-(5-(3-(2,4-dihydroxy-5-isopropylphenyl)-5-hydroxy-4H-1,2,4-triazol-4-yl)-1H-indol-1-yl)ethoxy)ethyl)-N4-(2-(2,6-dioxopiperidin-3-yl)-1-oxoisoindolin-4-yl)-N1-methylsuccinamide] the IC50 (HER2 [2]) was greater than 5 µM and the IC50 (HER2 [3]; BT-474 cells) was greater than 5 µM.

Molecule CC(C)c1cc(-c2nnc(O)n2-c2ccc(CN3CCN(C(=O)CCCC(=O)Nc4cccc5c4CN(C4CCC(=O)NC4=O)C5=O)CC3)cc2)c(O)cc1O (stereo not shown) [SDC-TRAP-0041, 5-(4-(4-(3-(2,4-dihydroxy-5-isopropylphenyl)-5-hydroxy-4H-1,2,4-triazol-4-yl)benzyl)piperazin-1-yl)-N-(2-(2,6-dioxopiperidin-3-yl)-1-oxoisoindolin-4-yl)-5-oxopentanamide] has an IC50 (HER2 [2]) greater than 5 µM and an IC50 (HER2 [3]; BT-474 cells) greater than 10 µM.

For CC(C)c1cc(-c2nnc(O)n2-c2ccc3c(ccn3CCNC(=O)CCCCCNC(=O)CCCC[C@H]3SC[C@H]4NC(=O)N[C@H]43)c2)c(O)cc1O [SDC-TRAP-0234, N-(2-(5-(3-(2,4-dihydroxy-5-isopropylphenyl)-5-hydroxy-4H-1,2,4-triazol-4-yl)-1H-indol-1-yl)ethyl)-6-(5-((3aR,4R,6aS)-2-oxohexahydro-1H-thieno[3,4-d]imidazol-4-yl)pentanamido)hexanamide], the “Mass Retention” value [1] was 9.56% and the Papp at 5 h [1] was 0.0123 ×10⁻⁶ cm/s.
